According to ChEMBL document CHEMBL1857833, “Screening and optimization of specific chemical series against human African Trypanosomiasis (HAT)”:
Values after ≈ are worked out from the molar mass of the structure shown. Values joined by “and” are separate entries in the source; they are usually repeats but may differ in a detail not shown here. Equal values may be shown once.

Tests used:
[1] = DNDI: Cytotoxicity against L929 mouse fibroblasts, CYTO-SP, 24 hour; type: toxicity, cell-based; settings: mouse, L929 mouse fibroblasts
in vitro = settings: mouse, liver microsomes, t (1 / 2)
Description: DNDI: half life in mouse liver microsomes at a concentration of 1uM

[2] = DNDI: Cytotoxicity against L929 mouse fibroblasts, 72 hour.; type: toxicity, cell-based; settings: mouse, L929 mouse fibroblasts
[3] = mouse, microsomes, 1 µM
Description: DNDI: in vitro intrinsic clearance in mouse liver microsomes at a concentration of 1uM

Trypanosoma brucei = test: DNDI: Inhibition of Human African Trypanosomiasis, SBRI 427, in vitro; type: functional, organism-based
[4] = DNDI: Solubility in phosphate buffered saline at pH7.4 measured by nephelometry at room temperature (NEPH-RT); type: physicochemical; settings: pH 7.4
[5] = DNDI: Lipophilicity measured in Chromatographic hydrophobicity index (CHI) assay, pH 7.4; type: physicochemical; settings: buffer
[6] = Trypanosoma brucei, SBRI 427, read-out: IC50

| SMILES | IC50 at 24 h [1] [µg/mL] | half-life at 1 µM (in vitro) [min] | IC50 at 72 h [2] [µg/mL] | CLint in vitro [3] [µL/min/mg] | IC50 (Trypanosoma brucei; [6]) [µg/mL] | solubility kinetic [4] [µM] | chromatographic logD [5] | IC50 (Trypanosoma brucei) |
| --- | --- | --- | --- | --- | --- | --- | --- | --- |
| CCCCCOc1ccc(-c2nc(CNC3[C@H]4C[C@@H]5C[C@@H](C[C@H]3C5)C4)co2)cc1 (some centres not stated) | > 50 | 32 | < 3.13 | 27 | 0.3 (≈ 0.76 µM) | – | – | – |
| CCc1ccccc1N/C(=N\O)c1ccccc1-c1ccccc1 | 16.3 (≈ 51.5 µM) | 4 | – | 209 | > 5 | – | – | – |
| CN1CC(OC(=O)c2ccccc2)=CC1=O | – | – | > 10 | – | > 5 | > 200 | 2.34 | – |
| CCCOc1ccc(-c2nc(CN[C@@H]3C[C@@H]4C[C@H]([C@H]3C)C4(C)C)co2)cc1 | 15.7 (≈ 42.7 µM) | 28 | < 3.13 | 30 | 0.49 (≈ 1.33 µM) | – | – | – |
| FC(F)(F)c1ccc(CNC(c2nc(Cc3ccccc3)c(N3CCOCC3)o2)C2CC2)cc1 (configuration not stated) | – | – | > 10 | – | 4.53 (≈ 9.61 µM) | 6 (≈ 2.83 µg/mL) | – | – |
| O/N=C(\NC1CCCCC1)c1ccc(-c2ccccc2)cc1 | 36 (≈ 122 µM) | 3 | – | 280 | > 5 | – | – | – |
| COc1cccc(OC)c1CNCc1coc(-c2ccc(C(C)(C)C)cc2)n1 | 43.2 (≈ 114 µM) | – | 2.07 (≈ 5.44 µM) | – | – | 1 (≈ 0.38 µg/mL) | – | 1.43 µg/mL and 0.89 µg/mL and 2.17 µg/mL |
| Cc1ccc(CNC(c2nc(-c3ccccc3)c(N3CCCCC3)o2)C2CC2)cc1 (configuration not stated) | – | – | > 10 | – | 4.56 (≈ 11.4 µM) | 3 (≈ 1.2 µg/mL) | > 5.2 | – |
| CC(C)CNC(CCc1ccccc1)c1nc(Cc2ccccc2)c(N2CCCCC2)o1 (configuration not stated) | – | 3 | > 10 | 307 | > 5 | 6 (≈ 2.59 µg/mL) | – | – |
| O/N=C(\NC1CCCCC1)c1cccnc1Oc1c(F)cccc1F | > 50 | 2 | > 10 | 351 | 0.46 (≈ 1.32 µM) | – | – | 0.48 µg/mL (≈ 1.38 µM) |
| O=C(NC1CCCCC1)c1ccccc1-c1ccccc1 | > 50 | 7 | – | 116 | > 5 | – | – | – |
| CCC(C)C(NCc1ccccc1OC)c1nc(-c2ccccc2)c(N2CCOCC2)o1 (configuration not stated) | – | 2 | > 10 | 440 | 4.06 (≈ 9.32 µM) | 6 (≈ 2.61 µg/mL) | – | – |
| CCCCCC(C)NCc1coc(-c2cc(OC)cc(OC)c2)n1 (configuration not stated) | – | – | 4.75 (≈ 14.3 µM) | – | 1.25 (≈ 3.76 µM) | 6 (≈ 1.99 µg/mL) | – | – |
| Cc1ccc(CNC(c2ccccc2)c2nc(Cc3ccccc3)c(N3CCOCC3)o2)cc1 (configuration not stated) | – | – | > 10 | – | 4.86 (≈ 10.7 µM) | 6 (≈ 2.72 µg/mL) | – | – |
| CCc1ccccc1N/C(=N\O)c1ccc(OC)cc1 | > 50 | 2 | – | 397 | > 5 | – | – | – |
| COc1ccc(/C(=N/O)Nc2cccc(C#N)c2)cc1 | – | – | > 10 | – | > 5 | 50 (≈ 13.4 µg/mL) | 2.41 | – |
| Cc1cccc(C)c1/C(=N/O)NC1CCCCC1 | > 50 | 11 | – | 76 | > 5 | – | – | – |
| CC(C)(C)c1ccc(Oc2ncccc2/C(=N/O)NC2CCCCC2)cc1 | – | 9 | > 10 | 95 | 0.07 (≈ 0.19 µM) | 13 (≈ 4.78 µg/mL) | – | – |
| Cc1ccc(CNC(c2nc(Cc3ccccc3)c(N3CCOCC3)o2)C2CCCCC2)cc1 (configuration not stated) | – | 4 | > 10 | 236 | 2.45 (≈ 5.33 µM) | 3 (≈ 1.38 µg/mL) | – | – |
| COc1ccc(N/C(=N/O)c2ccccc2-c2ccccc2)cc1 | > 50 | 5 | – | 166 | > 5 | – | – | – |
| CCCCCC(C)NCc1coc(-c2ccc(OCCC)cc2)n1 (configuration not stated) | 27.5 (≈ 83.4 µM) | 27 | < 3.13 | 31 | 0.54 (≈ 1.63 µM) | – | – | – |
| CCc1ccccc1/C(=N\O)NC1CCCCC1 | > 50 | 7 | – | 128 | 3.58 (≈ 14.5 µM) | – | – | – |
| CCC(C)C(NCc1ccc(C)cc1)c1nc(Cc2ccccc2)c(N2CCOCC2)o1 (configuration not stated) | – | 2 | > 10 | 378 | 2.61 (≈ 6.02 µM) | 6 (≈ 2.6 µg/mL) | – | – |
| CCCCCC(C)NCc1coc(-c2ccc(OCC(C)(C)C)cc2)n1 (configuration not stated) | – | 70 | 0.65 (≈ 1.81 µM) | 12 | 0.19 (≈ 0.53 µM) | 6 (≈ 2.15 µg/mL) | – | – |
| CCCCCC(C)NCc1coc(-c2ccc(OCc3ccccc3)cc2)n1 (configuration not stated) | – | 97 | 1.41 (≈ 3.73 µM) | 9 | 0.55 (≈ 1.45 µM) | 1 (≈ 0.379 µg/mL) | – | – |
| COc1ccc(N/C(=N/O)c2ccc(OC)cc2)cc1 | > 50 | 2 | – | 376 | > 5 | – | – | – |
| CCC(C)C1C(=O)CC(=O)N1C(=O)OC(C)(C)C (configuration not stated) | – | – | > 10 | – | > 5 | > 200 | 4.54 | – |
| CCCCCOc1ccc(-c2nc(CNC3CCCCCC3)co2)cc1 | 29.5 (≈ 82.8 µM) | 101 | < 3.13 | 8 | 0.25 (≈ 0.701 µM) | – | – | – |
| CCCCCC(C)NCc1coc(-c2ccc(C(C)C)cc2)n1 (configuration not stated) | – | 24 | 1.33 (≈ 4.23 µM) | 36 | 0.6 (≈ 1.91 µM) | 3 (≈ 0.943 µg/mL) | – | – |
